Data: patent publication US20250171431A1, “HETEROCYCLIC INHIBITORS OF IGF-1R FOR TREATMENT OF DISEASE” (HORIZON THERAPEUTICS IRELAND DAC, priority 2023, published 2025)

Molecular target: IGF-1R (Homo sapiens (Human), UniProt P08069)
Experiment: Example B-1: IGF-1R Assay (PC3 cells, IGF1 stimulation, AlphaLISA)
Type: cell-based
Details: 200 ng/mL IGF1 stimulation, read-out: Biological Activity against IGF-1R IC50
Summary of the method: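 PC3 cells were serum-starved 2 h, treated with serially diluted compounds for 2 h, then stimulated with IGF1 (200 ng/mL final) for 30 min. Lysates were read by AlphaLISA; % inhibition was calculated relative to vehicle and EC80 controls, with IC50 values binned into ranges.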

Chain of IGF-1R (P08069 31-1367): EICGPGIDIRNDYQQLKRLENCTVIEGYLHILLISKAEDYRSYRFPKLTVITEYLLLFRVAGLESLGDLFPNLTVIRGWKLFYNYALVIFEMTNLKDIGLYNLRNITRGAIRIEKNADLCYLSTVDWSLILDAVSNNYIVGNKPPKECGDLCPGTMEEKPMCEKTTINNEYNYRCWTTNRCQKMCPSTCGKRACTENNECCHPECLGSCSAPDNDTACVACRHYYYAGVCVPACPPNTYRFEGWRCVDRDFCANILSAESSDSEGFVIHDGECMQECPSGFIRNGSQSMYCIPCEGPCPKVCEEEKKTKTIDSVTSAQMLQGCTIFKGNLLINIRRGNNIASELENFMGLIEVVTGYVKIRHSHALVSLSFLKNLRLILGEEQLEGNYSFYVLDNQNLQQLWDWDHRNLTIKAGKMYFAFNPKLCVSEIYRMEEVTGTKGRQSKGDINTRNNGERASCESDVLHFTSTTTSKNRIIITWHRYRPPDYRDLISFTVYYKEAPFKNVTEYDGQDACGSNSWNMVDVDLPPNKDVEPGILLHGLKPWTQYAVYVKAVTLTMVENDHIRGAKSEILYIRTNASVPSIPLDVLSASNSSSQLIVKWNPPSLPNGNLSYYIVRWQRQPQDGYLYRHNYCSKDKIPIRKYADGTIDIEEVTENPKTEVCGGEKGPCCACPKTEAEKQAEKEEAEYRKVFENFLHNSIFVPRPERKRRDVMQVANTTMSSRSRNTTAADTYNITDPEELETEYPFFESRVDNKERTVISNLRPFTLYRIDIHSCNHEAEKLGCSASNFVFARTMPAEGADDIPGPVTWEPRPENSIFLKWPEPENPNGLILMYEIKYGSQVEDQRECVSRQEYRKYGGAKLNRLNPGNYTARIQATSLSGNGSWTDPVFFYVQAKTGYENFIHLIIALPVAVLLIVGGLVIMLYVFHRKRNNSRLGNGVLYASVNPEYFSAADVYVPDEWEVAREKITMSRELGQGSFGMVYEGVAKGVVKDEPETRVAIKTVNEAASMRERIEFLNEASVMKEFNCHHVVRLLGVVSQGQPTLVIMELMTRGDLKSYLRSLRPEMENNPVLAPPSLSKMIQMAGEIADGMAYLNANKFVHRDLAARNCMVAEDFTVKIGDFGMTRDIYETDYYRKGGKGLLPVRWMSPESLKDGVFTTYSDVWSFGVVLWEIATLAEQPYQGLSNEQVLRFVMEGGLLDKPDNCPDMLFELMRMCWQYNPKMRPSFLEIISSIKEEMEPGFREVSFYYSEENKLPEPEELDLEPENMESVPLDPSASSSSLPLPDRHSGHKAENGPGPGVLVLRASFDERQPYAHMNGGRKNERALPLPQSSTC

Row | SMILES | IC50
1 | COc1cc(N2CCN(C)CC2)ncc1Nc1nccc(Nc2cnc3cc(F)c(F)cc3c2)n1 [Compound 473, 4-(6,7-difluoro-3-quinolylamino)-2-[4-methoxy-6-(4-methy1-1-piperazinyl)-3-pyridylamino]pyrimidine] | ≤ 500 nM
2 | O=C1CN([C@H]2CC[C@@H](Oc3ccc(Nc4nccc(Nc5cnc6ccc(Cl)cc6c5)n4)cc3)CC2)CCN1 [Compound 308] | ≤ 500 nM
3 | COc1ccc2ncc(Nc3ccnc(Nc4ccc(O[C@H]5C[C@@H](N(C)C)C5)c(OC)c4)n3)cc2c1 [Compound 277, 4-(6-methoxy-3-quinolylamino)-2-{3-methoxy-4-[(1s,3s)-3-(dimethylamino)cyclobutoxy]phenylamino}pyrimidine] | ≤ 500 nM
4 | Fc1cnc(Nc2ccc(O[C@H]3C[C@H](N4CCOCC4)C3)cc2)nc1Nc1cnc2ccccc2c1 [Compound 327, 5-fluoro-4-(3-quinolylamino)-2-{p-[(1r,3r)-3-morpholinocyclobutoxy]phenylamino}pyrimidine] | ≤ 500 nM
5 | COc1cc(Nc2nccc(Nc3cnc4cnc(Cl)cc4c3)n2)ccc1O[C@H]1C[C@@H](N(C)C)C1 [Compound 87, 4-(6-chloro-1,7-diaza-3-naphthylamino)-2-{3-methoxy-4-[(1s,3s)-3-(dimethylamino)cyclobutoxy]phenylamino}pyrimidine] | ≤ 500 nM
6 | COc1cc(Nc2nccc(Nc3cnc4ccc(OC(F)(F)F)cc4c3)n2)ccc1O[C@H]1C[C@@H](N(C)C)C1 [Compound 128, N2-(4-((1s,3s)-3-(dimethylamino)cyclobutoxy)-3-methoxyphenyl)-N4-(6-(trifluoromethoxy)quinolin-3-yl)pyrimidine-2,4-diamine] | ≤ 500 nM
7 | COc1cc(Nc2nccc(Nc3cnc4c(c3)OCCO4)n2)cc(C#N)c1O[C@H]1C[C@H](N(C)C)C1 [Compound 44, 5-[4-(2,3-dihydro-1,4-dioxa-5-aza-7-naphthylamino)-2-pyrimidinylamino]-3-methoxy-2-[(1r,3r)-3-(dimethylamino)cyclobutoxy] benzonitrile] | ≤ 500 nM
8 | COc1cc(Nc2nccc(Nc3cnc4ccc(S(C)(=O)=O)cc4c3)n2)ccc1O[C@H]1C[C@H](N(C)C)C1 [Compound 329, 4-(6-mesyl-3-quinolylamino)-2-{3-methoxy-4-[(1r,3r)-3-(dimethylamino)cyclobutoxy]phenylamino}pyrimidine] | ≤ 500 nM
9 | COc1cc(Nc2nccc(Nc3cnc4cc(F)c(F)cc4c3)n2)cnc1N1CCC(C)(O)CC1 [Compound 156, 1-(5-((4-((6,7-difluoroquinolin-3-yl)amino)pyrimidin-2-yl)amino)-3-methoxypyridin-2-yl)-4-methylpiperidin-4-ol] | ≤ 500 nM
10 | COc1cc(Nc2nccc(Nc3cnc4c(c3)OC(CN(C)C)CO4)n2)ccc1O[C@H]1C[C@@H](N(C)C)C1 (stereo partly shown) [Compound 259, 4-{2-[(dimethylamino)methyl]-2,3-dihydro-1,4-dioxa-5-aza-7-naphthylamino}-2-{3-methoxy-4-[(1s,3s)-3-(dimethylamino)cyclobutoxy]phenylamino}pyrimidine] | ≤ 500 nM
11 | COc1cc(Nc2ncc(F)c(Nc3cnc4cc(F)c(F)cc4c3)n2)ccc1O[C@H]1C[C@@H](N(C)C)C1 [Compound 173, N4-(6,7-difluoroquinolin-3-yl)-N2-(4-((1s,3s)-3-(dimethylamino)cyclobutoxy)-3-methoxyphenyl)-5-fluoropyrimidine-2,4-diamine] | ≤ 500 nM
12 | COc1cc(Nc2nccc(Nc3ccc(Cl)nc3C(N)=O)n2)ccc1O[C@H]1C[C@@H](N(C)C)C1 [Compound 275, 6-chloro-3-(2-{3-methoxy-4-[(1s,3s)-3-(dimethylamino)cyclobutoxy]phenylamino}-4-pyrimidinylamino)-2-pyridinecarboxamide] | ≤ 500 nM
13 | COc1cc(Nc2nccc(Nc3cnc4c(c3)CCCC4C(C)(C)C)n2)ccc1OCCCN1CCCCC1 (stereo not shown) [Compound 74, 4-[8-(tert-butyl)-5,6,7,8-tetrahydro-3-quinolylamino]-2-[3-methoxy-4-(3-piperidinopropoxy)phenylamino] pyrimidine] | ≤ 500 nM
14 | COc1cc(Nc2nccc(Nc3cnc4c(c3)OCCO4)n2)ccc1O[C@H]1C[C@H](N2CCOCC2)C1 [Compound 23, 4-(2,3-dihydro-1,4-dioxa-5-aza-7-naphthylamino)-2-{3-methoxy-4-[(1r,3r)-3-morpholinocyclobutoxy]phenylamino}pyrimidine] | ≤ 500 nM
15 | COc1cc(Nc2nccc(Nc3cnc4c(ccn4C)c3)n2)ccc1O[C@H]1C[C@@H](N(C)C)C1 [Compound 282, 2-{3-methoxy-4-[(1s,3s)-3-(dimethylamino)cyclobutoxy]phenylamino}-4-(1-methyl-1H-1,7-diazainden-5-ylamino)pyrimidine] | ≤ 500 nM
16 | COc1cc(Nc2nccc(Nc3cc4cccc(F)c4[nH]c3=O)n2)cnc1N1CCNC(C(C)(C)O)C1 (stereo not shown) [Compound 238, 8-fluoro-3-(2-{6-[3-(1-hydroxy-1-methylethyl)-1-piperazinyl]-5-methoxy-3-pyridylamino}-4-pyrimidinylamino)-1,2-dihydro-2-quinolinone] | ≤ 500 nM
17 | COc1cc(Nc2nccc(Nc3cnc4c(c3)C3CCC4CC3)n2)ccc1OCCCN1CCCCC1 [Compound 209] | ≤ 500 nM
18 | COc1cc(Nc2nccc(Nc3ccc4ccc(Cl)nc4n3)n2)ccc1O[C@H]1C[C@@H](N(C)C)C1 [Compound 168, N4-(7-chloro-1,8-naphthyridin-2-yl)-N2-(4-((1s,3s)-3-(dimethylamino)cyclobutoxy)-3-methoxyphenyl)pyrimidine-2,4-diamine] | ≤ 500 nM
19 | COc1cc(Nc2cc(Nc3cnc4ccccc4n3)ccn2)ccc1O[C@H]1C[C@@H](N(C)C)C1 [Compound 262, 2-{3-methoxy-4-[(1s,3s)-3-(dimethylamino)cyclobutoxy]phenylamino}-4-(2-quinoxalinylamino)pyridine] | ≤ 500 nM
20 | COc1cc(Nc2nccc(Nc3cnc4cc(F)cc(F)c4c3)n2)ccc1O[C@H]1C[C@@H](N(C)C)C1 [Compound 118, 4-(5,7-difluoro-3-quinolylamino)-2-{3-methoxy-4-[(1s,3s)-3-(dimethylamino)cyclobutoxy]phenylamino}pyrimidine] | ≤ 500 nM
21 | COc1cc(Nc2nccc(Nc3cnc4ccc(C5CC5)cc4c3)n2)ccc1O[C@H]1C[C@H](N(C)C)C1 [Compound 325, 4-(6-cyclopropyl-3-quinolylamino)-2-{3-methoxy-4-[(1r,3r)-3-(dimethylamino)cyclobutoxy]phenylamino}pyrimidine] | ≤ 500 nM
22 | COc1nc(N2CCN(C)CC2)ccc1Nc1nccc(Nc2cc3cccc(F)c3nc2O)n1 [Compound 90, 8-fluoro-3-{2-[2-methoxy-6-(4-methyl-1-piperazinyl)-3-pyridylamino]-4-pyrimidinylamino}-2-quinolinol] | ≤ 500 nM

Other lines, results leading:

Row | IC50 | SMILES
23 | ≤ 500 nM | COc1cc(Nc2nccc(Nc3cnc4ccc(Cl)cc4c3)n2)cnc1N1CCN(CC#N)CC1 [Compound 479, (4-{5-[4-(6-chloro-3-quinolylamino)-2-pyrimidinylamino]-3-methoxy-2-pyridyl}-1-piperazinyl)acetonitrile]
24 | > 10000 nM | COc1cc(Nc2nccc(Nc3cnc4ccc(Cl)cc4c3)n2)ccc1OC1CN(C)C1 [Compound 293, 4-(6-chloro-3-quinolylamino)-2-[3-methoxy-4-(1-methyl-3-azetidinyloxy)phenylamino] pyrimidine]
25 | 500 to 2000 nM | COc1cc(Nc2nccc(Nc3cnc4c(c3)C(C)(C)OC(C)(C)C4)n2)ccc1OCCCN1CCCCC1 [Compound 386, 2-[3-methoxy-4-(3-piperidinopropoxy)phenylamino]-4-(5,5,7,7-tetramethyl-7,8-dihydro-5H-6-oxa-1-azanaphth-3-ylamino)pyrimidine]
26 | ≤ 500 nM | COc1cc(Nc2nccc(Nc3cnc4c(Cl)cccc4c3)n2)ccc1OCCCN1CCCCC1 [Compound 430, 4-(8-chloro-3-quinolylamino)-2-[3-methoxy-4-(3-piperidinopropoxy)phenylamino]pyrimidine]
27 | ≤ 500 nM | COc1cc(Nc2nccc(Nc3cnc4c(F)cccc4c3)n2)ccc1OCCCN1CCCCC1 [Compound 96, 4-(8-fluoro-3-quinolylamino)-2-[3-methoxy-4-(3-piperidinopropoxy)phenylamino]pyrimidine]
28 | ≤ 500 nM | COc1cc(Nc2nccc(Nc3cnc4ccc(Cl)cc4c3)n2)cnc1N1CCC(C)(O)CC1 [Compound 476, 1-{5-[4-(6-chloro-3-quinolylamino)-2-pyrimidinylamino]-3-methoxy-2-pyridyl}-4-methyl-4-piperidinol]
29 | ≤ 500 nM | COc1cc(Nc2nccc(Nc3cnc4c(F)c(F)ccc4c3)n2)ccc1OCCCN1CCCCC1 [Compound 393, 4-(7,8-difluoro-3-quinolylamino)-2-[3-methoxy-4-(3-piperidinopropoxy)phenylamino]pyrimidine]
30 | ≤ 500 nM | COc1cc(Nc2nccc(Nc3cnc4cc(F)c(F)cc4c3)n2)ccc1N1CCC(C)(O)CC1 [Compound 155, 1-(4-((4-((6,7-difluoroquinolin-3-yl)amino)pyrimidin-2-yl)amino)-2-methoxyphenyl)-4-methylpiperidin-4-ol]
31 | ≤ 500 nM | CC1(C)CCc2cc(Nc3ccnc(Nc4ccc(OCCCN5CCOCC5)cc4)n3)cnc2C1 [Compound 64, 4-(7,7-dimethyl-5,6,7,8-tetrahydro-3-quinolylamino)-2-[p-(3-morpholinopropoxy)phenylamino] pyrimidine]
32 | ≤ 500 nM | CN(C)CCOc1cc(Nc2nccc(Nc3cnc4ccccc4c3)n2)ccc1N1CCOCC1 [Compound 207, 2-{3-[2-(dimethylamino)ethoxy]-4-morpholinophenylamino}-4-(3-quinolylamino)pyrimidine]
33 | ≤ 500 nM | COc1cc(Nc2nccc(Nc3ccc4nc(C)ccc4c3)n2)ccc1OCCCN1CCCCC1 [Compound 456, 2-[3-methoxy-4-(3-piperidinopropoxy)phenylamino]-4-(2-methyl-6-quinolylamino) pyrimidine]
34 | ≤ 500 nM | COc1cc(Nc2nccc(Nc3cnc4c(c3)OCCO4)n2)ccc1OCCCN1CCCCC1 [Compound 201, 4-(2,3-dihydro-1,4-dioxa-5-aza-7-naphthylamino)-2-[3-methoxy-4-(3-piperidinopropoxy)phenylamino]pyrimidine]
